A value given as a limit tells only on which side of the number the result lay.

Sequence of PI3K delta (O00329 whole entry): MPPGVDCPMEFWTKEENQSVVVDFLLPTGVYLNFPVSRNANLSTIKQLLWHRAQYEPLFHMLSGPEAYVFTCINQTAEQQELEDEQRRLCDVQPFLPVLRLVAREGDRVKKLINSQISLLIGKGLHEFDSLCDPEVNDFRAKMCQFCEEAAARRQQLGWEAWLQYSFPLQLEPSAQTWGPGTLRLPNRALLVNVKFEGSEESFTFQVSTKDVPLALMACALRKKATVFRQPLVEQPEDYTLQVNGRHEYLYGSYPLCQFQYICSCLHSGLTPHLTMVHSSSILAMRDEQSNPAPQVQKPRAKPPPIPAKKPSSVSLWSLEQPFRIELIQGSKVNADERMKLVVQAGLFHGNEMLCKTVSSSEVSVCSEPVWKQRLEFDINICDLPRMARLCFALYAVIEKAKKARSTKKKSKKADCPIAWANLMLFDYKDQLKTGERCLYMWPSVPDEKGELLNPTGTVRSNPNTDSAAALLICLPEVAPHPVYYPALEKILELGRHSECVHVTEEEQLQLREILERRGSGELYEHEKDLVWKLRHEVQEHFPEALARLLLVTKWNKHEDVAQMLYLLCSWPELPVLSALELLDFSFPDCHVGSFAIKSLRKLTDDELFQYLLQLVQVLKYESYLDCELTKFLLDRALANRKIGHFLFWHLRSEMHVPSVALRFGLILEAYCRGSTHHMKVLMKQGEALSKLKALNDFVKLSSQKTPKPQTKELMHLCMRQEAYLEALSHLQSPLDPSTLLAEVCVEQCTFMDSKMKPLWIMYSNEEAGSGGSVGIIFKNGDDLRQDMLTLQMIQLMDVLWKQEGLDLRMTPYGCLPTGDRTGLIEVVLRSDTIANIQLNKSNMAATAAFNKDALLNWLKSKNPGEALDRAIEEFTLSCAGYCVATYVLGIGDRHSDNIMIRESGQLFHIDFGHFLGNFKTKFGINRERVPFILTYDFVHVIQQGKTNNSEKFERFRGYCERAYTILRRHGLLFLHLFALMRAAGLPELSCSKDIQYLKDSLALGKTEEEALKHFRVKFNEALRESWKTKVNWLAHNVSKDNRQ
Sequence of PI3K delta (P27986 whole entry partner): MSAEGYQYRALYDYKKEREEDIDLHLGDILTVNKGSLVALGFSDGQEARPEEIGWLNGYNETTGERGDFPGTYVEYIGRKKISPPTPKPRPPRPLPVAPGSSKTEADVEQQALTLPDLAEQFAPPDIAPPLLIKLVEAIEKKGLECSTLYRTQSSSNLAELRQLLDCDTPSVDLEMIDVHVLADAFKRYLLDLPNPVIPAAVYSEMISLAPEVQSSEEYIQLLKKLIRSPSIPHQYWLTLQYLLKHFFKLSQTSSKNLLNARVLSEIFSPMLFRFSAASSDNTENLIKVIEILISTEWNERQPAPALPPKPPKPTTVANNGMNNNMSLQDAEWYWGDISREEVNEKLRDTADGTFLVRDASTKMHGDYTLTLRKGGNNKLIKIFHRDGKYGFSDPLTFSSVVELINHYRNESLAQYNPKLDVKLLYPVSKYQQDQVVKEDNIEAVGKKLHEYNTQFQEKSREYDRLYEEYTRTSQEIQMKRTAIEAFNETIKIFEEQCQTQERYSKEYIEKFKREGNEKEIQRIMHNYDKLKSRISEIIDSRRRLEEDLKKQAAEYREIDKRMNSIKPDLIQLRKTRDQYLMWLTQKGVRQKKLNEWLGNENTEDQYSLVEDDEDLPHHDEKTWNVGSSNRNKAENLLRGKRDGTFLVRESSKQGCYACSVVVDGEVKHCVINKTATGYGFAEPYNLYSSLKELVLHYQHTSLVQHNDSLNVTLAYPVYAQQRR

The test addresses PI3K delta (Homo sapiens (Human), UniProt O00329). Kind of test: Luciferase-coupled chemiluminescence kinase assay (KinaseGlo, ATP consumption). Format: biochemical. In short, it runs like this: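 Kinase, compound and ATP (at or below KM) reacted 2 h at ambient temperature; remaining ATP detected by KinaseGlo luciferase chemiluminescence as percent ATP consumed. 10-point dose-response, curves fitted to give IC50.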
In general, IC50 refers to the concentration needed to halve the response being measured. The low end stands for greater potency in that assay, the high end for weaker potency in that assay. As for `Cc1cccc2cc(CNC(=O)c3nccnc3N)c(N(C)CCN(C)c3cnccn3)nc12` [Compound 90, 3-amino-N-{[8-methyl-2-(methyl{2-[methyl(pyrazin-2-yl)amino]ethyl}amino)quinolin-3-yl]methyl}pyrazine-2-carboxamide], the half-maximal inhibitory concentration (IC50) was in the range of 500 to 1500 nM.

Compound `CCCN1CCC[C@@H]1C(=O)N(C)CCN(C)c1nc2c(C)cccc2cc1CNC(=O)c1nccnc1N` [Compound 67, 3-amino-N-{[8-methyl-2-(methyl{2-[methyl(1-propyl-D-prolyl)amino]ethyl}amino)quinolin-3-yl]methyl}pyrazine-2-carboxamide] had a concentration for half-maximal inhibition (IC50) of under 50 nM.

`Cc1cccc2cc(Cn3cnc4c(N)ncnc43)c(N3CCCC3C)nc12` (centres unmarked) [Compound 170, 9-{[8-methyl-2-(2-methylpyrrolidin-1-yl)quinolin-3-yl]methyl}-9H-purin-6-amine] showed an IC50 of 50 to 250 nM.

In turn, `Cc1ccccc1-c1nc2ccccc2nc1Cn1cnc2c(N)ncnc21` [Compound 190, 9-{[3-(2-methylphenyl)quinoxalin-2-yl]methyl}-9H-purin-6-amine] gave a 50% inhibitory concentration (IC50) of 500 to 1500 nM.

For `Cc1cccc2cc(CNC(=O)c3nccnc3N)c(N(C)CCN(C)C(=O)c3cccnc3)nc12` [Compound 80, 3-amino-N-{[8-methyl-2-(methyl{2-[methyl(pyridin-3-ylcarbonyl)amino]ethyl}amino)quinolin-3-yl]methyl}pyrazine-2-carboxamide], the 50% inhibitory concentration (IC50) fell in the range of 250 to 500 nM.

On to `CN(C)Cc1cccc(-c2cc3ccccc3nc2CNC(=O)c2nccnc2N)c1` [Compound 69, 3-amino-N-[(3-{3-[(dimethylamino)methyl]phenyl}quinolin-2-yl)methyl]pyrazine-2-carboxamide], for which the IC50 lay in the range of 250 to 500 nM.

`COc1ccccc1NCc1cc2cccc(C)c2nc1-c1ccccc1Cl` [Compound 11, N-{[2-(2-chlorophenyl)-8-methylquinolin-3-yl]methyl}-2-(methyloxy)aniline] registered a half-maximal inhibitory concentration (IC50) of 500 to 1500 nM.

The compound `Cc1cccc2cc(CNC(=O)c3nccnc3N)c(N3CCCN(Cc4cccnc4)CC3)nc12` [Compound 64, 3-amino-N-({8-methyl-2-[4-(pyridin-3-ylmethyl)-1,4-diazepan-1-yl]quinolin-3-yl}methyl)pyrazine-2-carboxamide] yielded an IC50 of 250 to 500 nM.

For the compound `Cc1cccc2cc(CNC(=O)c3nccnc3N)c(N(C)CCN(C)Cc3ccccn3)nc12` [Compound 68, 3-amino-N-{[8-methyl-2-(methyl{2-[methyl(pyridin-2-ylmethyl)amino]ethyl}amino)quinolin-3-yl]methyl}pyrazine-2-carboxamide], the IC50 was in the range of 50 to 250 nM.

`Cc1cccc2cc(CNC(=O)c3nccnc3N)c(N3CCCN(Cc4cncn4C)CC3)nc12` [Compound 63, 3-amino-N-[(8-methyl-2-{4-[(1-methyl-1H-imidazol-5-yl)methyl]-1,4-diazepan-1-yl}quinolin-3-yl)methyl]pyrazine-2-carboxamide] showed a 50% inhibitory concentration (IC50) of 50 to 250 nM.

With `Cc1cccc2cc(CNC(=O)c3nccnc3N)c(N(C)CCN(C)C(=O)Cn3ccnc3C)nc12` [Compound 86, 3-amino-N-({8-methyl-2-[methyl(2-{methyl[(2-methyl-1H-imidazol-1-yl)acetyl]amino}ethyl)amino]quinolin-3-yl}methyl)pyrazine-2-carboxamide], the IC50 is under 50 nM.

Compound `Cc1cccc2cc(CNC(=O)c3nccnc3N)c(N(C)CCO)nc12` [Compound 121, 3-amino-N-({2-[(2-hydroxyethyl)(methyl)amino]-8-methylquinolin-3-yl}methyl)pyrazine-2-carboxamide] returned a 50% inhibitory concentration (IC50) of 50 to 250 nM.

On to `Cc1ccccc1-n1c(CNC(=O)c2nccnc2N2CCOCC2)nc2cccc(C)c2c1=O` [Compound 151], for which the half-inhibitory concentration (IC50) was 500 to 1500 nM.

The compound `COc1cccc(-c2nc3c(C)cccc3cc2Cn2cnc3c(N)ncnc32)c1` [Compound 185, 9-({8-methyl-2-[3-(methyloxy)phenyl]quinolin-3-yl}methyl)-9H-purin-6-amine] came in with an IC50 of 250 to 500 nM.

`CNCCN(C)c1nc2c(C)cccc2cc1Cn1cnc2c(N)ncnc21` [Compound 149, N-{3-[(6-amino-9H-purin-9-yl)methyl]-8-methylquinolin-2-yl}-N,N′-dimethylethane-1,2-diamine]: the IC50 is under 50 nM.

On to `Cc1ccccc1-c1cc2ccccc2nc1CNC(=O)c1cnc(N)nc1` [Compound 74, 2-amino-N-{[3-(2-methylphenyl)quinolin-2-yl]methyl}pyrimidine-5-carboxamide], for which the concentration for half-maximal inhibition (IC50) fell in the range of 500 to 1500 nM.

In the case of `Cc1cccc2cc(CNC(=O)c3nccnc3N)c(N(C)CCN(C)C(=O)c3ccncc3)nc12` [Compound 79, 3-amino-N-{[8-methyl-2-(methyl{2-[methyl(pyridin-4-ylcarbonyl)amino]ethyl}amino)quinolin-3-yl]methyl}pyrazine-2-carboxamide], the half-maximal inhibitory concentration (IC50) lay within 50 to 250 nM.

Consider `Cc1cccc2cc(CNC(=O)c3nccnc3N)c(N(C)CCN(C)C(=O)c3ccccn3)nc12` [Compound 81, 3-amino-N-{[8-methyl-2-(methyl{2-[methyl(pyridin-2-ylcarbonyl)amino]ethyl}amino)quinolin-3-yl]methyl}pyrazine-2-carboxamide], for which the IC50 was 250 to 500 nM.

`Cc1cccc2cc(CNC(=O)c3nccnc3N)c(N3CCCN(Cc4cccn4C)CC3)nc12` [Compound 57, 3-amino-N-[(8-methyl-2-{4-[(1-methyl-1H-pyrrol-2-yl)methyl]-1,4-diazepan-1-yl}quinolin-3-yl)methyl]pyrazine-2-carboxamide] had a concentration for half-maximal inhibition (IC50) of 500 to 1500 nM.

In turn, `Cc1cccc2cc(CNC(=O)c3nccnc3N)c(N(C)CCN(C)C(=O)CN(C)C)nc12` [Compound 114, 3-amino-N-({2-[{2-[(N,N-dimethylglycyl)(methyl)amino]ethyl}(methyl)amino]-8-methylquinolin-3-yl}methyl)pyrazine-2-carboxamide] had a 50% inhibitory concentration (IC50) of 50 to 250 nM.

In turn, `Cc1ccccc1-c1nc2c(C)cccc2cc1CSc1ncnc2[nH]cnc12` [Compound 188, 8-methyl-2-(2-methylphenyl)-3-[(9H-purin-6-ylthio)methyl]quinoline] had an IC50 of 50 to 250 nM.

In turn, `Nc1nccnc1C(=O)NCc1nc2ccccc2cc1Br` [Compound 93, 3-amino-N-[(3-bromoquinolin-2-yl)methyl]pyrazine-2-carboxamide] had a 50% inhibitory concentration (IC50) of 500 to 1500 nM.

`Cc1cccc2cc(CNC(=O)c3nccnc3N)c(N(C)CCN(C)C(=O)CN3CCCC3)nc12` [Compound 109, 3-amino-N-{[8-methyl-2-(methyl{2-[methyl(pyrrolidin-1-ylacetyl)amino]ethyl}amino)quinolin-3-yl]methyl}pyrazine-2-carboxamide]: the IC50 lay in the range of 50 to 250 nM.

For `Cc1cccc2cc(CNC(=O)c3nccnc3N)c(NCCCN(C)C)nc12` [Compound 138, 3-amino-N-[(2-{[3-(dimethylamino)propyl]amino}-8-methylquinolin-3-yl)methyl]pyrazine-2-carboxamide], the half-inhibitory concentration (IC50) lay within 500 to 1500 nM.

`Cc1cccc2cc(CNC(=O)c3nccnc3N)c(N(C)CCN(C)C(=O)Cn3cccn3)nc12` [Compound 49, 3-amino-N-{[8-methyl-2-(methyl{2-[methyl(1H-pyrazol-1-ylacetyl)amino]ethyl}amino)quinolin-3-yl]methyl}pyrazine-2-carboxamide]: the IC50 was under 50 nM.

`Cc1cccc2cc(CNC(=O)c3nccnc3N)c(N3CCCCC3)nc12` [Compound 147, 3-amino-N-[(8-methyl-2-piperidin-1-ylquinolin-3-yl)methyl]pyrazine-2-carboxamide] had an IC50 of 500 to 1500 nM.

Compound `Cc1cccc2cc(CNC(=O)c3nccnc3N)c(N3CCC(NC(=O)Cn4ccnn4)C3)nc12` (centres unmarked) [Compound 45, 3-amino-N-[(8-methyl-2-{3-[(1H-1,2,3-triazol-1-ylacetyl)amino]pyrrolidin-1-yl}quinolin-3-yl)methyl]pyrazine-2-carboxamide] yielded an IC50 of 500 to 1500 nM.

As for `CNCCN(C)c1nc2c(C)cccc2cc1CNc1ncnc2[nH]cnc12` [Compound 36, N,N′-dimethyl-N-{8-methyl-3-[(9H-purin-6-ylamino)methyl]quinolin-2-yl}ethane-1,2-diamine], the IC50 is under 50 nM.

As to `Cc1cccc2cc(CNC(=O)c3nccnc3N)c(N3CCNCC3)nc12` [Compound 131, 3-amino-N-[(8-methyl-2-piperazin-1-ylquinolin-3-yl)methyl]pyrazine-2-carboxamide], the half-inhibitory concentration (IC50) is 500 to 1500 nM.

For the compound `Cc1cccc2cc(CNC(=O)c3nccnc3N)c(N3CCCN(C(=O)Cn4ccnn4)CC3)nc12` [Compound 60, 3-amino-N-({8-methyl-2-[4-(1H-1,2,3-triazol-1-ylacetyl)-1,4-diazepan-1-yl]quinolin-3-yl}methyl)pyrazine-2-carboxamide], the 50% inhibitory concentration (IC50) lay within 250 to 500 nM.

`Cc1cccc2cc(Cn3cnc4c(N)ncnc43)c(N(C)CC3CCN(C)CC3)nc12` [Compound 4, 3-[(6-amino-9H-purin-9-yl)methyl]-N,8-dimethyl-N-[(1-methylpiperidin-4-yl)methyl]quinolin-2-amine] had an IC50 of under 50 nM.

Consider `Cc1cccc2cc(CNC(=O)c3nccnc3N)c(NCCc3cccnc3)nc12` [Compound 97, 3-amino-N-({8-methyl-2-[(2-pyridin-3-ylethyl)amino]quinolin-3-yl}methyl)pyrazine-2-carboxamide], for which the 50% inhibitory concentration (IC50) lay within 500 to 1500 nM.

`Cc1cccc2cc(CNC(=O)c3nccnc3N)c(NCCc3ccccn3)nc12` [Compound 96, 3-amino-N-({8-methyl-2-[(2-pyridin-2-ylethyl)amino]quinolin-3-yl}methyl)pyrazine-2-carboxamide]: the concentration for half-maximal inhibition (IC50) lay within 500 to 1500 nM.

Consider `Cc1nc(C)n(CC(=O)N(C)CCN(C)c2nc3c(C)cccc3cc2CNC(=O)c2nccnc2N)n1` [Compound 43, 3-amino-N-({2-[(2-{[(3,5-dimethyl-1H-1,2,4-triazol-1-yl)acetyl](methyl)amino}ethyl)(methyl)amino]-8-methylquinolin-3-yl}methyl)pyrazine-2-carboxamide], for which the half-inhibitory concentration (IC50) was under 50 nM.

In turn, `Cc1cccc2cc(Cn3cnc4c(N)ncnc43)c(N3CCN(C)CC3)nc12` [Compound 173, 9-{[8-methyl-2-(4-methylpiperazin-1-yl)quinolin-3-yl]methyl}-9H-purin-6-amine] registered an IC50 of 50 to 250 nM.

Values taken from US9670212B2, “Inhibitors of PI3K-delta and methods of their use and manufacture” (Exelixis, Inc., priority 2010, dated 2017).
